Test results published in patent US11369605B2, “Optically active azabicyclo ring derivative” (priority 2018, dated 2022).
pIC50: −log10 of the molar value.

Legend:
Format in all cases: cell-based
[1] = system: RS4; 11 cells; test: Test 2: inhibition of cell proliferation, RS4; 11; details: Homo sapiens; RS4; 11 cells, cultured 7 days, PrestoBlue
Method: (§1) Test for Evaluating the Inhibition of Cell Proliferation RS4; 11 cells were obtained from American Type Culture Collection (ATCC). […] MOLM-13 cells were separately obtained from DSMZ (Deutsche Sammlung von Mikroorganismen und Zeilkulturen GmbH). […] The cells were plated to a 96-well plate in 2000 cells/well, each test compound was added thereto to adjust the final concentration of DMSO to 0.1% of DMSO, and the cells were cultured for 7 days. After the cultivation, the cell viability was calculated with PrestoBlue™ Cell Viability Reagent (Invitrogen, A13261).

[2] = system: MOLM-13 cells; test: Test 2: inhibition of cell proliferation, MOLM-13; details: Homo sapiens, cultured 7 days, PrestoBlue
Method: as §1

[3] = system: HOXA9 mRNA in MV4; 11 cells; test: Test 3: inhibition of mRNA transcription, HOXA9; details: 20 to 24 hours, fitted with GAPDH
Method: (§2) Test 3: Test for the Inhibition of mRNA Transcription with Test Compounds
(§3) MV4; 11 cells were obtained from American Type Culture Collection (ATCC). […] After the incubation, the total RNA was extracted from the cells with RNeasy™ Mini Kit (QIAGEN, 74106), and cDNA was synthesized with Superscript™ VILO™ cDNA Synthesis Kit (Invitrogen, #11754250). By using TaqMan™ Gene Expression Master Mix (Applied Biosystems, 4369016) and TaqMan™ probe (Applied Biosystems), the expression level of mRNA was quantified from the obtained cDNA with 7900HT (Applied Biosystems). The expression level of each obtained gene (MEIS1 and HOXA9) was fitted with the expression level of mRNA of GAPDH.

[4] = system: MEIS1 mRNA in MV4; 11 cells; test: Test 3: inhibition of mRNA transcription, MEIS1
Method: as §2, §3

Compound: C=C1C[C@@H]2CC[C@H]1[C@@H](C(=O)N1CC3(C1)CN(c1ncncc1Oc1ccc(F)cc1C(=O)N(C(C)C)C(C)C)C3)N2 [Example 7, 5-fluoro-2-[(4-{6-[(1S,3S,4R)-5-methylidene-2-azabicyclo[2.2.2]octane-3-carbonyl]-2,6-diazaspiro[3.3]heptan-2-yl}pyrimidin-5-yl)oxy]-N,N-di(propan-2-yl)benzamide]
- pIC50 [1]: 8.00
- pIC50 [2]: 7.52
- mRNA at 1 μM (% control) HOXA9 [3]: 37.9 % control
- mRNA transcription inhibition activity (in words) ([4]; MEIS1 and HOXA9, MV4, summary of Test 3): showed the mRNA transcription inhibition activity
- mRNA at 1 μM (% control) MEIS1 ([4]; MV4, 1 μM, 20 to 24 hours, fitted with GAPDH): 12.7 % control
